Data set [1] in a line: refractive index (Na D-line) (dimensionless); wn = mass fraction of the nth substance listed. The following applies: 100 kPa, Liquid, Standard Abbe refractometry.
Data set [2] in a line: wn = mass fraction of the nth substance listed. The following applies: 100 kPa, Liquid, Vibrating tube method.

± gives the expanded uncertainty stated by the source.

`[Cl-].[Na+]` [sodium chloride] + O: the refractive index (usually a measure of how strongly the sample bends light) in data set [1] (293.15 K, w1 = 0.265) stood at 1.38027 ± 0.002; in data set [1] (313.15 K, w1 = 0.2717), 1.37386 ± 0.002. In addition, the mass density – broadly, mass per unit of volume – in data set [2] (293.15 K, w1 = 0.265) is 1200.01 ± 10 kg/m3; in data set [2] (313.15 K, w1 = 0.2717) it was 1181.06 ± 10 kg/m3.
